Test results as given in patent US8404678B2, “Cytotoxic agents comprising new tomaymycin derivatives and their therapeutic use” (priority 2007, dated 2013).
Read-outs that look alike come from different tables or passages of the source.

Legend:
Format in all cases: cell-based
[1] = system: MDA-MB-231 cells; test: Continuous exposure clonogenic assay; settings: Homo sapiens
Protocol: (§1) MDA-MB-231 cells were plated at 3000 cells per well in two separate 6-well plates; PC-3 and SK-MEL-28 cells were plated at 2000 cells per well in 2 separate plates. The test article(s) were added to give final concentrations of 0, 5×10^−13, 5×10^−12, 5×10^−11, 5×10^−10 and 5×10^−9 M per well (or similar dosage range) to each plate. For example, when cells are plated in 1 mL, and 1 mL of a 2× concentration of the test compound or conjugate is added to the appropriate wells to give the final desired concentration in 2 mls. The final solution of the test article was made in the same medium as the cell line; therefore, different dilutions of conjugate had to be made for each different cell line. The plates are placed in an incubator at 37° C. in 5% CO2. Cell growth is monitored and when cells in the “0” (control) wells had formed colonies but were not confluent, usually 7 days for these cell lines, the supernatant was removed by aspiration. The cells were washed once with PBS (Phosphate Buffer Solution) and the supernatant aspirated. To each well, 0.5 ml per well of a 0.1% crystal violet/10% formalin/PBS was added. The plates were incubated at room temperature for 10-15 minutes. The supernatant was aspirated and the wells washed 3 times with distilled H2O, and then air dried. Colonies in each well were counted and the number of colonies in each dosed well was divided by the number of colonies in the “0” well to give the surviving fraction. IC50 values were then calculated from the data.

[2] = system: SK-MEL-28 cells; test: Continuous exposure clonogenic assay; settings: Homo sapiens
Protocol: as §1

[3] = system: PC-3 cells; test: Continuous exposure clonogenic assay; settings: Homo sapiens
Protocol: as §1

[4] = system: Ramos cells; test: In vitro viability assay (WST-8)
Protocol: (§2) Samples of free tomaymycin derivative or tomaymycin derivative conjugate are added to a 96-well flat bottomed tissue culture plate and titrated using serial dilutions ranging from 1×10^−12 M to 3×10^−7 M. Antigen positive tumor cells or antigen negative tumor cells are added to the wells in such a way that there are triplicate samples for each drug concentration for each cell line. […]
[…] The absorbance in each well of the plates is then measured using the Molecular Devices plate reader at 450 nm. Surviving fraction of cells at each concentration of tomaymycin derivative or conjugate are plotted.
(§3) The cytotoxicity of the compounds and their specificity vs. the conjugates of the invention against MOLT-4, BJAB, HL60/QC, HL60/ATCC and Ramos cell lines were tested. Results are illustrated in FIGS. 1, 2, 3, 6 and 8.

[5] = system: HL60/ATCC cells; test: In vitro viability assay (WST-8)
Protocol: as §2
(§4) At the end of the incubation period, 20 μl of the tetrazolium reagent WST-8 (2-(2-methoxy-nitrophenyl)-3-(4-nitrophenyl)-5-(2,4-disulfophenyl)-2-tetrazolium, monosodium salt) is added to each well, and the plates are returned to the incubator for 2 hours. The absorbance in each well of the plates is then measured using the Molecular Devices plate reader at 450 nm. Surviving fraction of cells at each concentration of tomaymycin derivative or conjugate are plotted.
as §3

[6] = system: various cell-lines; test: In vitro cytotoxicity, cell line not named; settings: FIG. 3; IGP08-OMe compared with IGP08
Protocol: (§5) Samples of free tomaymycin derivative or tomaymycin derivative conjugate are added to a 96-well flat bottomed tissue culture plate and titrated using serial dilutions ranging from 1×10^−12 M to 3×10^−7 M. Antigen positive tumor cells or antigen negative tumor cells are added to the wells in such a way that there are triplicate samples for each drug concentration for each cell line. The plates are incubated at 37° C. in an atmosphere of 5% CO2 for 4 days.
as §4, with “Surviving fraction of cells at each concentration of tomaymycin derivative or conjugate are plotted.” left out
MDA-MB-231 cells were plated at 3000 cells per well in two separate 6-well plates; PC-3 and SK-MEL-28 cells were plated at 2000 cells per well in 2 separate plates. […] Cell growth is monitored and when cells in the “0” (control) wells had formed colonies but were not confluent, usually 7 days for these cell lines, the supernatant was removed by aspiration. […] Colonies in each well were counted and the number of colonies in each dosed well was divided by the number of colonies in the “0” well to give the surviving fraction. IC50 values were then calculated from the data.

[7] = system: HL60/QC cells; test: In vitro viability assay (WST-8); settings: Homo sapiens
Protocol: as §5, §4, §3

[8] = MDA-MB-231, read-out: In vitro data (IC50) MDA-MB-231
[9] = SK-MEL-28, read-out: In vitro data (IC50) SK-MEL-28
[10] = PC-3, read-out: In vitro data (IC50) PC-3
[11] = Homo sapiens, Ramos, read-out: In vitro data (IC50) Ramos
[12] = Homo sapiens, HL-60, read-out: In vitro data (IC50) HL60/ATCC
[13] = HL-60, read-out: In vitro data (IC50) HL60/QC

Compound	IC50 [1, 8] [pM]	IC50 [2, 9] [pM]	IC50 [3, 10] [pM]	IC50 [4, 11] [pM]	IC50 [5, 12] [pM]	also measured
C/C=C1\C[C@H]2C=Nc3cc(OCc4cc(C#CCCCC(=O)OC)cc(COc5cc6c(cc5OC)C(=O)N5C/C(=C/C)C[C@H]5C=N6)c4)c(OC)cc3C(=O)N2C1	12	15	27	1.2	2.2	–
huMy9-6—3-(2-{2-[2-(3,5-Bis-[(S)-2-eth-(E)-ylidene-7-methoxy-1,2,3,11a-tetrahydro-pyrrolo[2,1c][1,4]benzodiazepin-5-one-8-yloxymethyl]-phenoxy)-ethoxy]-ethoxy}-ethoxy)-propionyl conjugate [ex. 14]	–	–	–	–	–	IC50 ([4]; conjugate, Ramos (Ag−) @ 2000 cells/well, 5 day exposure, WST 4.5 hours, FIG. 23, read-out: ~IC50 Ramos cells): < 10000 pM; IC50 ([5]; conjugate, HL60/ATCC (Ag+) @ 5000 cells/well, 7 day exposure, WST 2 hours, FIG. 23, read-out: ~IC50 HL60/ATCC cells): ~23 pM
C/C=C1\C[C@H]2C=Nc3cc(OCc4cc(OCCOCCOCCOCCC(=O)OC)cc(COc5cc6c(cc5OC)C(=O)N5C/C(=C/C)C[C@H]5C=N6)n4)c(OC)cc3C(=O)N2C1	8	71	500	–	–	–
C/C=C1\C[C@H]2C=Nc3cc(OCc4cc(OCCCC(=O)OC)cc(COc5cc6c(cc5OC)C(=O)N5C/C(=C/C)C[C@H]5C=N6)n4)c(OC)cc3C(=O)N2C1	1.7	8.7	11	–	–	–
C=C1C[C@H]2C=Nc3cc(OCc4cc(CCC(=O)OC)cc(COc5cc6c(cc5OC)C(=O)N5CC(=C)C[C@H]5C=N6)c4)c(OC)cc3C(=O)N2C1 [compound 8]	–	–	–	–	–	In vitro cytotoxicity potency, ester versus acid [6]: higher potency; IC50 ([1]; unconjugated tomaymicine derivatives, MDA-MB-231, read-out: In vitro data (IC50) MDA-MB-231): 17 pM; IC50 ([2]; unconjugated tomaymicine derivatives, SK-MEL-28, read-out: In vitro data (IC50) SK-MEL-28): 10 pM; IC50 ([3]; unconjugated tomaymicine derivatives, PC-3, read-out: In vitro data (IC50) PC-3): 27 pM; IC50 ([4]; Homo sapiens, unconjugated tomaymicine derivatives, Ramos, read-out: In vitro data (IC50) Ramos): 8 pM; IC50 ([5]; Homo sapiens, HL-60, unconjugated tomaymicine derivatives, HL60/ATCC, read-out: In vitro data (IC50) HL60/ATCC): 4 pM; IC50 ([7]; HL-60, unconjugated tomaymicine derivatives, HL60/QC, read-out: In vitro data (IC50) HL60/QC): 1.1 pM
C=C1C[C@H]2C=Nc3cc(OCc4cc(COc5cc6c(cc5OC)C(=O)N5C/C(=C/C)C[C@H]5C=N6)cc(OCC(=O)OC)c4)c(OC)cc3C(=O)N2C1	–	–	–	1.4	12	–
C/C=C1\C[C@H]2C=Nc3cc(OCc4cc(COc5cc6c(cc5OC)C(=O)N5C/C(=C/C)C[C@H]5C=N6)cc(OCCN(C)C(=O)CCC(=O)OC)c4)c(OC)cc3C(=O)N2C1	9	90	500	–	–	–
C/C=C1\C[C@H]2C=Nc3cc(OCc4cc(COc5cc6c(cc5OC)C(=O)N5C/C(=C/C)C[C@H]5C=N6)cc(OCCOCCOCCOCCC(=O)OC)c4)c(OC)cc3C(=O)N2C1	16	9.7	7.4	–	12	–
C=C1C[C@H]2C=Nc3cc(OCc4cc(CCC(=O)O)cc(COc5cc6c(cc5OC)C(=O)N5CC(=C)C[C@H]5C=N6)c4)c(OC)cc3C(=O)N2C1 [compound 9, 4-(3,5-Bis-[(S)-2-methylidene-7-methoxy-1,2,3,11a-tetrahydro-pyrrolo[2,1c][1,4]benzodiazepin-5-one-8-yloxymethyl]-phenyl)-propanoic acid]	–	–	–	2700	2600	IC50 [7, 13]: 3500 pM
C/C=C1\C[C@H]2C=Nc3cc(OCc4cc(COc5cc6c(cc5OC)C(=O)N5C/C(=C/C)C[C@H]5C=N6)cc(OCCCC(=O)O)c4)c(OC)cc3C(=O)N2C1	–	–	–	580	2000	IC50 [7, 13]: 1200 pM
